# Reference: ChEMBL document CHEMBL1201862, “PubChem BioAssay data set” (2004)
#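 Compound exposure: 48 hours, 5 concentrations, 96-well plates. GI50 marks 50% less growth.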 The source made the active and inactive calls. No stated cut-off is given here; in the data, active = GI50 up to about 1.1 µM and inactive = higher.
# Tests used:
# Experiment in all cases: NCI tumour cell line growth inhibition, 48 h
# CAKI-1 = tested on: CAKI-1
# HOP-92 = tested on: HOP-92
# IGROV-1 = tested on: IGROV-1
# K562 = tested on: K562
# LOX IMVI = tested on: LOX IMVI
# NCI-H23 = tested on: NCI-H23
# NCI-H460 = tested on: NCI-H460
# NCI-H522 = tested on: NCI-H522
# RXF 393 = tested on: RXF 393
# SF-268 = tested on: SF-268
# SF-295 = tested on: SF-295
# SK-MEL-28 = tested on: SK-MEL-28
# SK-OV-3 = tested on: SK-OV-3
# SNB-19 = tested on: SNB-19
# SNB-75 = tested on: SNB-75
# UACC-257 = tested on: UACC-257
# BT-549 = tested on: BT-549
# HCT-116 = tested on: HCT-116
# MCF7 = tested on: MCF7
# MDA-N = tested on: MDA-N
SMILES,GI50 (CAKI-1),GI50 (HOP-92),GI50 (IGROV-1),GI50 (K562),GI50 (LOX IMVI),GI50 (NCI-H23),GI50 (NCI-H460),GI50 (NCI-H522),GI50 (RXF 393),GI50 (SF-268),GI50 (SF-295),GI50 (SK-MEL-28),GI50 (SK-OV-3),GI50 (SNB-19),GI50 (SNB-75),GI50 (UACC-257),GI50 (BT-549),GI50 (HCT-116),GI50 (MCF7),GI50 (MDA-N)
Cc1ccc(S(=O)(=O)N[C@H](C(=O)O)c2ccccc2)cc1,> 100 µM (inactive),> 100 µM (inactive),> 100 µM (inactive),> 100 µM (inactive),> 100 µM (inactive),> 100 µM (inactive),> 100 µM (inactive),> 100 µM (inactive),> 100 µM (inactive),> 100 µM (inactive),> 100 µM (inactive),> 100 µM (inactive),> 100 µM (inactive),> 100 µM (inactive),> 100 µM (inactive),> 100 µM (inactive),–,–,–,–
C[C@H]1CC[C@@]2(OC1)O[C@H]1C[C@H]3[C@@H]4CC[C@@H]5C[C@@H](OC6OC(CO)C(O)C(O)C6OC6OC(CO)C(O)C(O)C6O)CC[C@]5(C)[C@H]4CC[C@]3(C)[C@H]1[C@@H]2C (stereo not given in full),1.8 µM (inactive),2.37 µM (inactive),2.3 µM (inactive),2.07 µM (inactive),1.99 µM (inactive),2.31 µM (inactive),–,2.71 µM (inactive),–,2.3 µM (inactive),2.22 µM (inactive),–,1.69 µM (inactive),2.18 µM (inactive),2.24 µM (inactive),2.15 µM (inactive),2.35 µM (inactive),2.01 µM (inactive),2.1 µM (inactive),–
CCCN1C(=O)/C(=C\c2ccc(OC)c(OC)c2)S/C1=N\c1ccccc1,> 100 µM (inactive),50.1 µM (inactive),> 100 µM (inactive),> 100 µM (inactive),> 100 µM (inactive),> 100 µM (inactive),> 100 µM (inactive),> 100 µM (inactive),–,38.6 µM (inactive),24.2 µM (inactive),> 100 µM (inactive),27.9 µM (inactive),27.5 µM (inactive),–,> 100 µM (inactive),87.9 µM (inactive),> 100 µM (inactive),> 100 µM (inactive),> 100 µM (inactive)
Nc1nc(CCl)nc(N2CCOCC2)n1,16.5 µM (inactive),16.8 µM (inactive),14.3 µM (inactive),23.4 µM (inactive),–,17.8 µM (inactive),17.7 µM (inactive),3.4 µM (inactive),36.6 µM (inactive),33.7 µM (inactive),29.8 µM (inactive),20.4 µM (inactive),45.6 µM (inactive),> 100 µM (inactive),33.5 µM (inactive),63.2 µM (inactive),31.7 µM (inactive),21.5 µM (inactive),28.6 µM (inactive),–
CCCCCCCCCCCC(=O)OCC1OC(n2cc(F)c(=O)[nH]c2=O)C(NC(=O)OCc2ccccc2)C(O)C1O (stereo not given),32.6 µM (inactive),22.4 µM (inactive),> 100 µM (inactive),21.7 µM (inactive),18.4 µM (inactive),35.3 µM (inactive),17.6 µM (inactive),14.5 µM (inactive),27.2 µM (inactive),39.5 µM (inactive),27.9 µM (inactive),19.1 µM (inactive),63.7 µM (inactive),28.5 µM (inactive),11.1 µM (inactive),23.4 µM (inactive),–,16.7 µM (inactive),–,–
COc1cc2c(cc1C[C@H]1[C@@H]3C[C@H]4c5c(c6ccccc6n5C)C[C@@H]([C@@H]3CO[C@]1(C)OC(C)=O)N4C)c1c(n2C)C2C[C@H]3C(C(C)=O)=COC[C@H]3[C@H](C1)N2C,2.23 µM (inactive),4.98 µM (inactive),7.24 µM (inactive),6.03 µM (inactive),> 25 µM (inactive),7.06 µM (inactive),3.38 µM (inactive),–,2.58 µM (inactive),2.69 µM (inactive),4.67 µM (inactive),9.91 µM (inactive),11.1 µM (inactive),5.2 µM (inactive),–,4.03 µM (inactive),3.29 µM (inactive),2.5 µM (inactive),7.48 µM (inactive),–
Cc1cc(N(CCC#N)CCC#N)ccc1C(/N=N\c1ccc(C(=O)O)cc1)=N\NC(=O)c1cc(Cl)ccc1O,46.6 µM (inactive),–,24.7 µM (inactive),> 100 µM (inactive),–,39.2 µM (inactive),36 µM (inactive),17.1 µM (inactive),25.4 µM (inactive),19.2 µM (inactive),12.4 µM (inactive),–,28.2 µM (inactive),23.6 µM (inactive),22.6 µM (inactive),> 100 µM (inactive),45.9 µM (inactive),36.1 µM (inactive),32.4 µM (inactive),–
CC1=CC(=O)NP(=O)(Oc2ccc(Cl)cc2)N1 (stereo not given),> 100 µM (inactive),> 100 µM (inactive),> 100 µM (inactive),89.3 µM (inactive),> 100 µM (inactive),> 100 µM (inactive),> 100 µM (inactive),> 100 µM (inactive),> 100 µM (inactive),> 100 µM (inactive),> 100 µM (inactive),> 100 µM (inactive),> 100 µM (inactive),> 100 µM (inactive),> 100 µM (inactive),> 100 µM (inactive),–,> 100 µM (inactive),–,–
Oc1cc(-c2cccc(C(F)(F)F)c2)nc2cc3c(cc12)OCO3,10.9 µM (inactive),2.24 µM (inactive),3.29 µM (inactive),0.26 µM (active),–,1.77 µM (inactive),1.39 µM (inactive),0.536 µM (active),–,–,–,2.87 µM (inactive),2.26 µM (inactive),2.77 µM (inactive),1.06 µM (active),–,1.24 µM (inactive),–,2.23 µM (inactive),–
CC(NC1=NCCO1)c1ccccc1Cl (stereo not given),> 100 µM (inactive),< 0.01 µM (active),> 100 µM (inactive),> 100 µM (inactive),> 100 µM (inactive),> 100 µM (inactive),> 100 µM (inactive),> 100 µM (inactive),> 100 µM (inactive),> 100 µM (inactive),> 100 µM (inactive),> 100 µM (inactive),> 100 µM (inactive),> 100 µM (inactive),96.2 µM (inactive),> 100 µM (inactive),–,60.4 µM (inactive),> 100 µM (inactive),> 100 µM (inactive)
[N-]=[N+]=Nc1c(-c2ccccc2)c(Cl)nc2ccccc12,31.8 µM (inactive),22 µM (inactive),39.5 µM (inactive),45.7 µM (inactive),20.6 µM (inactive),33.5 µM (inactive),31.5 µM (inactive),18.1 µM (inactive),51.6 µM (inactive),48.1 µM (inactive),22.8 µM (inactive),58.7 µM (inactive),86.3 µM (inactive),29.9 µM (inactive),29.9 µM (inactive),25.5 µM (inactive),23.2 µM (inactive),47.8 µM (inactive),–,27 µM (inactive)
Cc1cccc2c1Oc1ncccc1C2NC(=O)CN(C)C (stereo not given),–,3.77 µM (inactive),> 10 µM (inactive),> 10 µM (inactive),> 10 µM (inactive),> 10 µM (inactive),> 10 µM (inactive),> 10 µM (inactive),–,> 10 µM (inactive),> 10 µM (inactive),–,> 10 µM (inactive),> 10 µM (inactive),7.78 µM (inactive),> 10 µM (inactive),> 10 µM (inactive),–,> 10 µM (inactive),–
COCC(=O)CP(=O)(OC)OC,> 100 µM (inactive),> 100 µM (inactive),> 100 µM (inactive),> 100 µM (inactive),> 100 µM (inactive),> 100 µM (inactive),> 100 µM (inactive),> 100 µM (inactive),> 100 µM (inactive),> 100 µM (inactive),> 100 µM (inactive),> 100 µM (inactive),> 100 µM (inactive),> 100 µM (inactive),> 100 µM (inactive),> 100 µM (inactive),–,> 100 µM (inactive),–,–
COC(=O)/C=C/c1ccc2c(c1)[C@H](C(=O)OC)[C@@H](c1ccc(O)cc1)O2,45.3 µM (inactive),59 µM (inactive),27.4 µM (inactive),4.06 µM (inactive),18 µM (inactive),46.8 µM (inactive),35.1 µM (inactive),21.4 µM (inactive),–,30.3 µM (inactive),31.4 µM (inactive),23.1 µM (inactive),69 µM (inactive),21.9 µM (inactive),–,32.5 µM (inactive),16.8 µM (inactive),38.5 µM (inactive),9.02 µM (inactive),5.06 µM (inactive)
COC(=O)[C@H](CCSC)NC(=O)c1ccc(CNC(=O)/C=C/c2cccc(Oc3ccccc3)c2)cc1,> 46.5 µM (inactive),9.75 µM (inactive),27.5 µM (inactive),20.7 µM (inactive),51.8 µM (inactive),42 µM (inactive),60.5 µM (inactive),25.8 µM (inactive),16.7 µM (inactive),> 59.2 µM (inactive),> 78.5 µM (inactive),17.4 µM (inactive),> 100 µM (inactive),> 95.1 µM (inactive),22.4 µM (inactive),11.5 µM (inactive),> 69.7 µM (inactive),> 100 µM (inactive),38.6 µM (inactive),–
